Counter-ions that a name gives are not always drawn. Like-named read-outs stand apart in the source and are kept apart here.
Legend:
α2C receptor = target: T1, α2C receptor (Homo sapiens, UniProt P18825); test: Competition binding, [3H]rauwolscine, human α2C receptor
T1 construct: host or cells: LM(tk-) cells, line L-α2C
T1 sequence (P18825 1-462): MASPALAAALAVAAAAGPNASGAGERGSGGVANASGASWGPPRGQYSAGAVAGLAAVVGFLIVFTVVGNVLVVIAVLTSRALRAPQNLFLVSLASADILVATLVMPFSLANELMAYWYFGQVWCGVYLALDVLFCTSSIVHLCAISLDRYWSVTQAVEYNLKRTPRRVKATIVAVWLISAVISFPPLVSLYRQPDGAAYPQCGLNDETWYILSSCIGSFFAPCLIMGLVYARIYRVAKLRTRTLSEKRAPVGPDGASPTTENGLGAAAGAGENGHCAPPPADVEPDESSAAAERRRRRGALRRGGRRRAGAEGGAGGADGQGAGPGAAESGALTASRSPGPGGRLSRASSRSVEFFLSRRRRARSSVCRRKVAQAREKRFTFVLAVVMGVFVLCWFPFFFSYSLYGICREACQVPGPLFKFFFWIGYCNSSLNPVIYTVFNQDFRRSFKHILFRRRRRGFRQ
In short: (§1)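 Using 25 mM glycylglycine buffer at pH 7.6 (room temperature), membranes from LM(tk−) cells carrying α2A, α2B or α2C were competed against 0.5 nM [3H]rauwolscine to equilibrium. Separation was by GF/B filtration; phentolamine (10 μM) set nonspecific binding.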

α2A receptor = target: T2, α2A receptor (Homo sapiens, UniProt P08913); test: Competition binding, [3H]rauwolscine, human α2A receptor
T2 construct: host or cells: LM(tk-) cells, line L-α2A
T2 sequence (P08913 1-465): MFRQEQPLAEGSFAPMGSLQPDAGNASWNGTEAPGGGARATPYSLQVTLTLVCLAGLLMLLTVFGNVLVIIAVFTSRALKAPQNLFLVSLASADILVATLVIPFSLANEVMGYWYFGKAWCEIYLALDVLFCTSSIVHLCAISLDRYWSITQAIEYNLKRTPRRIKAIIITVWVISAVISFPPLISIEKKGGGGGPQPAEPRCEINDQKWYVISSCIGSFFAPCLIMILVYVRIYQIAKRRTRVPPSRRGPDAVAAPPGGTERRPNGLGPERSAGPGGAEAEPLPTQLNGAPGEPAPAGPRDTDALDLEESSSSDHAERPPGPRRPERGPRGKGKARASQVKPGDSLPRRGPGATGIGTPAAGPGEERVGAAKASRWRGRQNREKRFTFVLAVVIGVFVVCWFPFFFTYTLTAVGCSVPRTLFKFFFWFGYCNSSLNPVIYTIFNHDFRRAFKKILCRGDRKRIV
In short: as §1

[1] = target: T3, α1A Human Adrenergic Receptor (Homo sapiens, UniProt P25100); test: Radioligand binding, [3H]prazosin, cloned human α1A adrenergic receptor
T3 construct: The entire coding region of α1A (1719 bp); expressed in transfected cells
T3 sequence (P25100 1-572): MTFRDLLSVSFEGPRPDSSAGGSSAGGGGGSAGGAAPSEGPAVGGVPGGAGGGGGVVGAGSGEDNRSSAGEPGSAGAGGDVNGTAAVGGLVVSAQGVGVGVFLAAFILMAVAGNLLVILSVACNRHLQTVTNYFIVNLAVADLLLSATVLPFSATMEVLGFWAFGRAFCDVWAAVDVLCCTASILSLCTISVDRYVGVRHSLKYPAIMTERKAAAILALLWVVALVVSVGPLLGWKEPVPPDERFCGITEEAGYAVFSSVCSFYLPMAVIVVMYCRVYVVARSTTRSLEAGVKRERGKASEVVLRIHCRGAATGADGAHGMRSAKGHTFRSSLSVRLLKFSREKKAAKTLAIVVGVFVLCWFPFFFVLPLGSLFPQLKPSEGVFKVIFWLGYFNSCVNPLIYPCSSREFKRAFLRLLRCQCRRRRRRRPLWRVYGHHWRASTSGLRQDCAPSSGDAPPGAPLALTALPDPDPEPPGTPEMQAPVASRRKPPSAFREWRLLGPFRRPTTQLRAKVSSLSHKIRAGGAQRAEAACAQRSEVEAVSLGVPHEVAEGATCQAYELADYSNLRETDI
In short: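 In pH 7.5 Tris/MgCl2/ascorbic acid buffer, α1A-expressing LM(tk−) membranes are exposed to 0.5 nM [3H]prazosin (37° C, 20 min). Excess phentolamine (10 μM) marks nonspecific binding before rapid filtration.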

[2] = [3H]rauwolscine, human receptor, LM(tk-) cell lysates, mean, read-out: PKi alpha-2 2c (converted)
[3] = [3H]rauwolscine, human receptor, LM(tk-) cell lysates, mean, read-out: PKi alpha-2 2a (converted)
[4] = [3H]prazosin, cloned human receptor, LM(tk-) cell membranes, mean, read-out: PKi alpha-1 1a (converted)
[5] = [3H]rauwolscine, human α2A receptor, LM(tk-) cells, read-out: PKi alpha-2 2a (converted)
[6] = PKi alpha-1 1a, [3H]prazosin, cloned human α1A receptor, LM(tk-) cell membranes
[7] = [3H]rauwolscine, LM(tk-) cell line L-α2C, SEM and n in lines below, read-out: pKi alpha-2 2c (converted)
[8] = [3H]rauwolscine, LM(tk-) cell line L-α2A, SEM and n in lines below, read-out: pKi alpha-2 2a (converted)
[9] = [3H]prazosin, cloned human receptor in LM(tk-) cell membranes, SEM and n in lines below, read-out: pKi alpha-1 1a (converted)
[10] = [3H]rauwolscine, LM(tk-) cell line L-α2C, SEM and n in lines below
[11] = [3H]rauwolscine, LM(tk-) cell line L-α2A, SEM and n in lines below
[12] = [3H]prazosin, cloned human receptor in LM(tk-) cell membranes, SEM and n in lines below

CCC1=C(C(N)=O)C(c2ccc([N+](=O)[O-])cc2)C(C(=O)NCCCN2CCC(C(=O)OC)(c3ccccc3)CC2)=C(CCCCN=[N+]=[N-])N1 (stereo not drawn) [Example 165, 2-(4-Azidobutyl)-3-{N-[3-(4-methoxycarbonyl-4-phenylpiperidin-1-yl)propyl]}carboxamido-5-carboxamido-6-ethyl-1,4-dihydro-4-(4-nitrophenyl)pyridine] was tested, and the Ki (α2C receptor; [2]) was 1.51 µM, the Ki (α2A receptor; [3]) was 3.02 µM and the Ki [1, 4] was 1.41 µM.
Molecule CCC1=C(C(=O)NCCOC)C(c2ccc([N+](=O)[O-])cc2)C(C(=O)NCCCN2CCC(c3ccccc3)(c3ccccc3)CC2)=C(COC)N1 (stereo not drawn) [Example 247, 6-Ethyl-1,4-dihydro-5-N-((2-methoxy)ethyl)carboxamido-2-(methyloxy)methyl-4-(4-nitro)phenyl-3-(N-(3-(4,4-diphenylpiperidin-1-yl)propyl)) carboxamidopyridine] has a Ki (α2C receptor; [3H]rauwolscine, human α2C receptor, LM(tk-) cells, read-out: PKi alpha-2 2c (converted)) of 0.302 µM, a Ki (α2A receptor; [5]) of 0.589 µM and a Ki [1, 6] of 0.977 µM.
In the case of CCC1=C(C(=O)NC)C(c2ccc([N+](=O)[O-])cc2)C(C(=O)NCCCN2CCC(C#N)(c3ccccc3)CC2)=C(CC)N1 (stereo not drawn) [Example 126, 3-{N-[3-(4-Cyano-4-phenylpiperidin-1-yl)propyl]}carboxamido-1,4-dihydro-2,6-diethyl-5-(1-methyl)carboxamido-4-(4-nitrophenyl)pyridine], the “pKi alpha-2 2c” value (α2C receptor; [3H]rauwolscine, human α2C receptor, LM(tk−) cells) is reported as 5.36, the “pKi alpha-2 2a” value (α2A receptor; [3H]rauwolscine, human α2A receptor, LM(tk−) cells) is reported as 5.33 and the “pKi alpha-1 1a” value ([1]; [3H]prazosin, cloned human α1A receptor, LM(tk−) cell membranes) is reported as 5.15.
CC(=O)C1=C(C)NC(COCCN)=C(C(=O)NCCCN2CCC(c3ccccc3)(c3ccccc3)CC2)C1c1ccc2c(c1)OCO2 (stereo not drawn) [Example 239, 5-Acetyl-2-((2-aminoethyl)oxy)methyl-1,4-dihydro-6-methyl-4-(3,4-methylenedioxy)phenyl-3-(N-(3-(4,4-dipheylpiperidin-1-yl)propyl))carboxamidopyridine] showed a Ki (α2C receptor; PKi alpha-2 2c, [3H]rauwolscine, human α2C receptor, LM(tk-) cells) of 0.263 µM, a Ki (α2A receptor; [5]) of 0.832 µM and a Ki [1, 6] of 0.275 µM.
With CC1=C(C(N)=O)C(c2cccc([N+](=O)[O-])c2)C(C(=O)NCCCN2CCC(c3ccccc3)CC2)=C(C)N1 (stereo not drawn) [Example 62] the Ki (α2C receptor; [7]) was 0.049 µM, the Ki (α2A receptor; [8]) was 0.0245 µM and the Ki [1, 9] was 0.339 µM.
Work on CC(=O)C1=C(C)NC(CCCCN)=C(C(=O)NCCCN2CCC(c3ccccc3)(c3ccccc3)CC2)C1c1ccc([N+](=O)[O-])cc1 (stereo not drawn) [Example 176, 5-Acetyl-2-(4-aminobutyl)-1,4-dihydro-6-methyl-4-(4-nitrophenyl)-3-{N-[3-(4,4-diphenylpiperidin-1-yl)propyl]}carboxamidopyridine] yielded a Ki (α2C receptor; [2]) of 0.724 µM, a Ki (α2A receptor; [3]) of 0.977 µM and a Ki ([1]; PKi alpha-1 1a, [3H]prazosin, cloned human receptor, LM(tk-) cell membranes, mean) of 0.309 µM.
With CCC1=C(C(=O)NC2CCN(Cc3ccccc3)CC2)C(c2ccc([N+](=O)[O-])cc2)C(C(=O)OC)=C(C)N1 (stereo not drawn) [Example 75, 2-Ethyl-1,4-dihydro-5-methoxycarbonyl-6-methyl-4-(4-nitro)phenyl-3-(N-(N-phenylmethyl)piperidin-4-yl)carboxamidopyridine hydrochloride] the Ki (α2C receptor; [7]) was 1.23 µM, the Ki (α2A receptor; [8]) was 2.88 µM and the Ki [1, 9] was 4.37 µM.
COC(=O)C1=C(C)NC(C)=C(C(=O)NCCCN2CCC(c3ccccc3)CC2)C1c1ccc([N+](=O)[O-])cc1 (single isomer, unassigned; (+)) [(+)-45, 1,4-Dihydro-3-methoxycarbonyl-2,6-dimethyl-4-(4-nitrophenyl)-5-{N-[3-(4-phenylpiperidin-1-yl)propyl]}carboxamidopyridine hydrochloride hemihydrate] was tested, and the Ki (α2C receptor; [7]) was 0.0224 µM, the Ki (α2A receptor; [8]) was 0.24 µM and the Ki [1, 9] was 0.178 µM.
CC1=C(C(=O)NCCCN2CCC(c3ccccc3)CC2)C(c2ccc([N+](=O)[O-])cc2)c2c([nH]c(=O)[nH]c2=O)N1 (stereo not drawn) [Example 63, 1,4-Dihydro-6-methyl-4-(4-nitrophenyl)-5-{N-[3-(4-phenylpiperidin-1-yl)propyl]}carboxamido-[2,3, d]uracilylpyridine] gave a Ki (α2C receptor; [7]) of 0.17 µM, a Ki (α2A receptor; [8]) of 0.955 µM and a Ki [1, 9] of 0.0447 µM.
For CCC1=C(C(=O)NC)C(c2ccc([N+](=O)[O-])cc2)C(C(=O)NCCCN2CCC(C(=O)OC)(c3ccccc3)CC2)=C(CCCCOC)N1 (stereo not drawn) [Example 174, 6-Ethyl-1,4-dihydro-2-(4-methoxybutyl)-3-{N-[3-(4-methoxycarbonyl-4-phenylpiperidin-1-yl)propyl]}carboxamido-5-(N-methyl)carboxamido-4-(4-nitrophenyl)pyridine], the Ki (α2C receptor; [2]) was 0.676 µM, the Ki (α2A receptor; [3]) was 2 µM and the Ki [1, 4] was 3.98 µM.
CC(=O)C1=C(C)NC(C)=C(C(=O)NCCCN2CCC(c3ccccc3)(c3ccccc3)CC2)C1c1ccc([N+](=O)[O-])cc1 (stereo not drawn) [Example 47, 5-Acetyl-1,4-dihydro-2,6-dimethyl-4-(4-nitrophenyl)-3-{N-[3-(4,4-diphenylpiperidin-1-yl)propyl]}carboxamidopyridine] was tested, and the “pKi alpha-2 2c” value (α2C receptor; [10]) was 6.43, the “pKi alpha-2 2a” value (α2A receptor; [11]) was 6.22 and the “pKi alpha-1 1a” value [1, 12] was 6.29.
In the case of CCNC(=O)C1=C(CC)NC(COCCN)=C(C(=O)NCCCN2CCC(C(=O)OC)(c3ccccc3)CC2)C1c1ccc([N+](=O)[O-])cc1 (stereo not drawn) [Example 233, 2-((2-Aminoethyl)oxy)methyl-6-ethyl-5-N-ethylcarboxamido-1,4-dihydro-3-(N-(3-(4-methoxycarbonyl-4-phenylpiperidin-1-yl)propyl))carboxamido-4-(4-nitro)phenylpyridine], the Ki (α2C receptor; PKi alpha-2 2c) is reported as 1.66 µM, the Ki (α2A receptor) is reported as 4.79 µM and the Ki ([1]; PKi alpha-1 1a) is reported as 4.07 µM.
In the case of CC1=C(C(N)=O)C(c2ccc([N+](=O)[O-])cc2)C(C(=O)NCCCN2CCC(c3ccccc3)CC2)=C(C)N1 (stereo not drawn) [Example 60, 5-Carboxamido-1,4-dihydro-2,6-dimethyl-4-(4-nitrophenyl)-3-{N-[3-(4-phenylpiperidin-1-yl)propyl]}carboxamidopyridine], the Ki (α2C receptor; [7]) is reported as 0.0676 µM, the Ki (α2A receptor; [8]) is reported as 0.0055 µM and the Ki [1, 9] is reported as 0.2 µM.
COc1cc2c(c(OC)c1)CCN(CCCNC(=O)C1=C(c3ccoc3)NC(C)=C(C(N)=O)C1c1ccc([N+](=O)[O-])cc1)C2.Cl.O (stereo not drawn) [Example 67] was tested, and the “pKi alpha-2 2c” value (α2C receptor; [10]) was 7.00, the “pKi alpha-2 2a” value (α2A receptor; [11]) was 6.45 and the “pKi alpha-1 1a” value [1, 12] was 5.96.
With COC(=O)C1=C(C)NC(C)=C(C(=O)NCCCN2CCC(c3ccccc3)CC2)C1c1ccc([N+](=O)[O-])cc1 (single isomer, unassigned; (-)) [(−)-45, 1,4-Dihydro-3-methoxycarbonyl-2,6-dimethyl-4-(4-nitrophenyl)-5-{N-[3-(4-phenylpiperidin-1-yl)propyl]}carboxamidopyridine hydrochloride hemihydrate] the Ki (α2C receptor; [7]) was 0.0138 µM, the Ki (α2A receptor; [8]) was 0.339 µM and the Ki [1, 9] was 0.0407 µM.
